We go through seven compounds from ChEMBL document CHEMBL1201862, “PubChem BioAssay data set” (2004).

Common to all, as to assay: inhibition of tumour cell growth, NCI panel, 48 h
Experiment [1] deals with SF-268.
Experiment [2] deals with SNB-75.
Experiment [3] relates to MDA-N.
Experiment [4] relates to A549.
For experiment [5], the system named is HCT-15.
The test system of experiment [6] is UACC-257.
In experiment [7] the test system is TK-10.
Experiment [8] concerns IGROV-1.
Experiment [9] deals with KM12.
For experiment [10], the system named is LOX IMVI.
Experiment [11] relates to HOP-92.
The subject of experiment [12] is SK-MEL-2.
Experiment [13] deals with SN12C.
The subject of experiment [14] is T47D.
Experiment [15] has as its system NCI-H23.
Experiment [16] deals with SK-MEL-28.
In experiment [17] the test system is UACC-62.
Experiment [18] relates to CAKI-1.
Experiment [19] deals with HCT-116.
The test system of experiment [20] is NCI-H522.

Structures are written as SMILES.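 96-well plates; 48 h exposure; 5 concentrations. Endpoints by linear interpolation between flanking doses. Not reached: highest tested concentration assigned. GI50 = concentration required for 50% inhibition of growth.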 Activity calls are given as the source filed them. No stated cut-off is given here; in the data, active = GI50 up to about 1.1 µM and inactive = higher.

For the compound `c1ccc2cc(NCNc3ccc4ccccc4c3)ccc2c1`, the GI50 in [1] is 38.8 µM (inactive); in experiment [2], 13.2 µM (inactive); in experiment [3], 4.33 µM (inactive); in experiment [4] it was 18.3 µM (inactive); in experiment [5], 15.6 µM; in experiment [6], 8.73 µM (inactive). Besides, the GI50 in [7] is 21.7 µM (inactive); in experiment [8] it was 7.52 µM (inactive); in [9], 13.6 µM (inactive); in experiment [10], 10.8 µM (inactive); in experiment [11] it was 1.27 µM (inactive); in experiment [12] it was 8.17 µM (inactive). For the same compound, the GI50 in experiment [13] is 9.53 µM (inactive); in [14], 15.7 µM (inactive); in experiment [15], 12.2 µM (inactive); in experiment [16], 34.8 µM (inactive); in [17], 14.7 µM (inactive); in experiment [18], 17.9 µM (inactive). For the same compound, the figures for the GI50 in experiment [19] and in [20] were 16.7 µM (inactive) and 17.6 µM (inactive), respectively.
Regarding `Nc1ccn(C2CCC(CO)O2)c(=O)n1` (stereo not given), the GI50 is > 62.8 µM (inactive) in [1]; > 100 µM (inactive) in experiment [2]; > 1000 µM (inactive) in experiment [3]; > 100 µM (inactive) in experiment [4]; over 100 µM in experiment [5]; > 100 µM (inactive) in experiment [6]. Moreover, the GI50 in experiment [7] was > 1000 µM (inactive); in [8], > 100 µM (inactive); in experiment [9] it was > 100 µM (inactive); in experiment [10], > 100 µM (inactive); in [11], > 100 µM (inactive); in [12], > 100 µM (inactive). Moreover, the GI50 in experiment [13] was > 100 µM (inactive); in experiment [14], > 1000 µM (inactive); in experiment [15] it was > 100 µM (inactive); in [16], > 100 µM (inactive); in experiment [17] it was > 100 µM (inactive); in [18], > 100 µM (inactive). Also, the GI50 in [19] is > 100 µM (inactive); in experiment [20], 656 µM (inactive).
In the case of `CN(C)CC1CCC/C(=C\c2ccc(OC(=O)/C=C/c3ccc(Cl)cc3)cc2)C1=O` (stereo not given), the GI50 in [1] was 4.09 µM (inactive); in [2], 8.93 µM (inactive); in experiment [3] it was 6.9 µM (inactive); in [4], 8.49 µM (inactive); in [5], 2.01 µM; in experiment [6], 11.5 µM (inactive). Further, the GI50 in [7] is 1.31 µM (inactive); in experiment [8], 1.43 µM (inactive); in experiment [9] it was 1.47 µM (inactive); in experiment [10], 1.58 µM (inactive); in experiment [11], 1.57 µM (inactive); in experiment [12], 9.82 µM (inactive). Besides, the GI50 in experiment [13] was 3.92 µM (inactive); in experiment [14] it was 1.15 µM (inactive); in experiment [15] it was 6.65 µM (inactive); in [16], 6.14 µM (inactive); in experiment [17], 8.81 µM (inactive); in [18], 2.62 µM (inactive). Besides, the GI50 in experiment [19] is 3.56 µM (inactive); in [20], 0.916 µM (active).
Consider `N/N=c1\[nH]c2ccccc2o1`, for which the GI50 in experiment [1] was > 100 µM (inactive); in experiment [2] it was > 100 µM (inactive); in experiment [3] it was > 100 µM (inactive); in [4], > 100 µM (inactive); in experiment [5], 77.3 µM; in experiment [6], > 100 µM (inactive). The GI50 in [7], in experiment [8], in experiment [9], in experiment [10], in experiment [11] and in experiment [12] was > 100 µM (inactive) throughout. Further, the GI50 was > 100 µM (inactive) in experiment [13]; 30.1 µM (inactive) in experiment [14]; > 100 µM (inactive) in [15]; > 100 µM (inactive) in experiment [16]; > 100 µM (inactive) in [17]; > 100 µM (inactive) in experiment [18]. The results for the GI50 in experiment [19] and in experiment [20] were 80 µM (inactive) and 57.1 µM (inactive), respectively.
Consider `COC(=O)C1=C(C)NC(C)=C(C(=O)OC)C1c1ccc(/[N+]([O-])=C/c2ccccc2)cc1`, for which the GI50 in experiment [1] was > 100 µM (inactive); in experiment [2], 34.9 µM (inactive); in experiment [3], 34.4 µM (inactive); in experiment [4], 96.6 µM (inactive); in experiment [5] it was 42.5 µM; in experiment [6], 29.6 µM (inactive). Besides, the GI50 in experiment [7] was 92.9 µM (inactive); in experiment [8], > 100 µM (inactive); in experiment [9], > 100 µM (inactive); in experiment [10], 45 µM (inactive); in experiment [11], 20.8 µM (inactive); in experiment [12], > 100 µM (inactive). For the same compound, the GI50 was 51.5 µM (inactive) in experiment [13]; 19.8 µM (inactive) in [14]; 42.5 µM (inactive) in [15]; 18.7 µM (inactive) in experiment [16]; 37.6 µM (inactive) in experiment [17]; 18.7 µM (inactive) in experiment [18]. Also, the GI50 is 16.4 µM (inactive) in experiment [19] and 14.6 µM (inactive) in experiment [20].
As to `Nc1ccc(CCSSCCc2ccc(N)cc2)cc1`, the GI50 is 18.4 µM (inactive) in experiment [1]; 30.9 µM (inactive) in [2]; 27.7 µM (inactive) in [3]; 35.1 µM (inactive) in experiment [4]; 23.4 µM in experiment [5]; 20 µM (inactive) in [6]. For the same compound, the GI50 in [7] was 36.1 µM (inactive); in experiment [8] it was 37.1 µM (inactive); in experiment [9], 30.3 µM (inactive); in experiment [10] it was 21.9 µM (inactive); in experiment [11], 34.5 µM (inactive); in experiment [12], 20.2 µM (inactive). Further, the GI50 was 22.9 µM (inactive) in [13]; 35.6 µM (inactive) in experiment [14]; 29.7 µM (inactive) in experiment [15]; 28.3 µM (inactive) in experiment [16]; 26.5 µM (inactive) in [17]; 26.4 µM (inactive) in experiment [18]. Besides, the GI50 was 16.1 µM (inactive) in experiment [19] and 12.9 µM (inactive) in [20].
In the case of `CCN(CC)Cc1nc2sc3c(c2c(=O)n1-c1ccccc1)CCCC3`, the GI50 in [1] is 21.1 µM (inactive); in [2], 18.4 µM (inactive); in experiment [3], 19.7 µM (inactive); in experiment [4], 20.5 µM (inactive); in experiment [5], 23.8 µM; in [6] it was 21.2 µM (inactive). Also, the GI50 in experiment [7] was 16.4 µM (inactive); in experiment [8] it was 18.7 µM (inactive); in experiment [9], 46.3 µM (inactive); in experiment [10] it was 13.8 µM (inactive); in experiment [11] it was 22 µM (inactive); in [12], 19.1 µM (inactive). Besides, the GI50 was 19.5 µM (inactive) in [13]; 18.8 µM (inactive) in experiment [14]; 35.1 µM (inactive) in experiment [15]; 35.4 µM (inactive) in experiment [16]; 15.4 µM (inactive) in experiment [17]; 19.7 µM (inactive) in experiment [18]. For the same compound, the figures for the GI50 in [19] and in [20] were 18.7 µM (inactive) and 21.8 µM (inactive), respectively.
